We go through three compounds from paper PMC11219744, “Renal excretion of 1,2-dihydroxynaphthalene (DHN) in firefighting instructors after exposure to polycyclic aromatic hydrocarbons (PAHs) during live fire training” (Scientific Reports, 2024).

The nature of series [1]: Human biomonitoring: urinary excretion of PAH metabolites (GC–MS/MS, creatinine-normalised) in firefighting instructors before and after live fire training. The following applies: for Increase in concentration from before exposure up to the maximum of excretion, factor / Concentration in urine, IQR / Concentration in urine, range / Concentration in urine, median / Median increase in morning urine after exposure (sampling 9) vs. before (sampling 1): in vivo; for Median increase from baseline (sample 2) to peak excretion: peak: sample 5 for 1-PYR, sample 4 otherwise. The method, then: All study participants (n = 6) were male firefighting instructors from Germany. […] Before the start of the study, all subjects declared that they were non-smokers. Tattoo bearers were excluded before the start of the study as tattoo ink can be a potential source of polycyclic aromatic hydrocarbons. The authors declare that this research was conducted in accordance with the relevant regulations, including the Declaration of Helsinki. All subjects gave written informed consent after being informed about the study by the investigator.
Exposure to combustion products took place in several training sessions that simulated live fire conditions by burning a defined number of uncoated chipboards in an overseas container. The container was located in a hall with exhaust air purification. […] In addition, all subjects wore long-sleeved undergarments under their turnout gear. Only laundered clothing and cleaned equipment (e.g. helmets, masks) were used. The donning and doffing of clothing and protective equipment took place only in a smoke-free, well-ventilated area. Immediately after taking off the firefighters' gloves after training, the participants put on nitrile gloves for further undressing. After removing the helmet, flash hood and SCBA face shield, the participants put on particle filtering half masks (FFP3) to remove contaminated turnout jackets and trousers. After a break for rehydration and cool down still wearing their undergarments, the participants went to shower. […] The interval between two consecutive training sessions for each subject was at least six days. […] In this way, each subject was biomonitored at each of the five training sessions. All additional (unscheduled) urinations between the predefined times were also collected in separate containers and pooled afterwards with the next scheduled sample. […] A total of 270 samples were to be collected using this procedure for all participants and five training sessions of each individual. Subjects completed a questionnaire for each sampling period to account for possible pre-exposure or concurrent exposure to PAHs from sources other than the fire simulation unit, such as occupational exposure to combustion products, exposure to tobacco smoke (active/passive) and barbecue activities, and consumption of smoked or charbroiled foods.
In brief, the analytes were extracted by liquid–liquid extraction with n-hexane after enzymatic hydrolysis of the urine samples with ß-glucuronidase/arylsulfatase (isolated from helix pomatia) and derivatised by silylation with N-trimethylsilyl-N-methyl trifluoroacetamide afterwards. […] All standards were obtained from LGC-Standards, Wesel, Germany.
DHN in urine was determined referring to a method described in detail by Klotz et al.[29]. […] External calibration with internal standardisation by an isotopically labelled analogue of the target compound was done by analysis of pool urine samples spiked with the glucuronides of DHN and D6-1,2-dihydroxynaphthalene (internal standard) before enzymatic hydrolysis. Both standards are not commercially available and were obtained as a gift from the Institute of Occupational, Social and Environmental Medicine at the University of Erlangen-Nuremberg (Germany). A detailed description of the synthesis of the compounds is given by[26]. […] Up to now, there is no external quality assessment scheme available for DHN.
Urinary creatinine was analysed in the Institute of Clinical Chemistry and Laboratory Medicine of University Medical Centre of the Johannes Gutenberg University Mainz using a photometrical assay based on the method of[30].

The nature of series [2]: Time to peak and initial elimination half-life of the urinary biomarkers (first-order model, linear mixed effects). The class given is in vivo, human. From the text:
The initial half-life of each biomarker was estimated using statistical methods described previously[6],[32]. In short, we estimated the first-order elimination rate constant λ based on the model in Eq. (1):1 C=C0+B·e^λ·t+∈
Here, C is the creatinine-adjusted concentration in urine after the uptake phase, C0 is the baseline concentration before training, B is the difference from peak to baseline concentration, t is the time since peak concentration, and ϵ is the error term. […] Using package nlme[33] for the statistical environment R[34],[35], the model was fitted as a linear mixed effects model for the log concentration difference to baseline ln(C–C0) as the outcome. The model was fitted simultaneously for all data and included fixed effects for biomarker, time since peak, and their interaction term. It used random slopes for time since peak and random intercepts for […]. Errors were assumed to be autocorrelated according to an AR(1) process.

On the set-up of series [3]: method as in PMID 32464238. The following applies: by scheduled sampling time; cited from earlier work.
For series [4] the following is noted: upper margin of internal exposure typically found in smokers; cited from earlier work.
For series [5] the following is noted: cited from earlier work.
Where [6] appears, read: urinary excretion, time after onset of exposure.

Usually half-life stands for how long it takes for the measured level to halve.

Take `Oc1ccc2ccccc2c1` [2-NAP, 2-hydroxynaphthalene]: the “Proportion in the total excretion of the three naphthalene metabolites” value in series [1] (after exposure (after sampling 3, rest of the sampling period), based on median concentrations) is given as “lower than 10%”. Besides, the “Increase in concentration from before exposure up to the maximum of excretion, factor” value in series [1] (male, human) is listed as “about 6”. Also, the “Concentration in urine, IQR” value was 4.55–9.78 µg/g creatinine in series [1] (male, human, 0 h); 11.05–18.20 µg/g creatinine in series [1] (male, human, 1 h); 8.14–14.40 µg/g creatinine in series [1] (male, human, 3 h); 3.62–7.98 µg/g creatinine in series [1] (male, human, 6 h); 2.34–5.27 µg/g creatinine in series [1] (male, human, 9 h); 1.76–4.19 µg/g creatinine in series [1] (male, human, 11 h). Further, the “Concentration in urine, IQR” value in series [1] (male, human, 18 h) is 1.93–4.24 µg/g creatinine; in series [1] (male, human, -0.4 h), 1.13–3.47 µg/g creatinine; in series [1] (male, human, -4.2 h), 1.18–2.88 µg/g creatinine. Further, the “Concentration in urine, range” value in series [1] (male, human, 0 h) is 2.07–42.68 µg/g creatinine; in series [1] (male, human, 1 h), 3.97–58.89 µg/g creatinine; in series [1] (male, human, 3 h), 5.62–23.16 µg/g creatinine; in series [1] (male, human, 6 h) it was 1.17–12.78 µg/g creatinine; in series [1] (male, human, 9 h) it was 1.30–11.32 µg/g creatinine; in series [1] (male, human, 11 h) it was 1.08–10.02 µg/g creatinine. The “Concentration in urine, range” value in series [1] (male, human, 18 h) is given as 1.02–14.56 µg/g creatinine; in series [1] (male, human, -0.4 h) it was 0.21–10.94 µg/g creatinine; in series [1] (male, human, -4.2 h), 0.30–10.02 µg/g creatinine. The “Concentration in urine, median” value in series [1] (male, human, 1 h) came out at 11.96 µg/g creatinine; in series [1] (male, human, 2 h), 7.42 µg/g creatinine; in series [1] (male, human, 3 h), 10.07 µg/g creatinine; in series [1] (male, human, 6 h), 5.12 µg/g creatinine; in series [1] (male, human, 9 h), 3.48 µg/g creatinine; in series [1] (male, human, 11 h), 3.14 µg/g creatinine. For the same compound, the “Concentration in urine, median” value in series [1] (male, human, 18 h) turned out to be 3.26 µg/g creatinine; in series [1] (male, human, -0.4 h), 1.94 µg/g creatinine; in series [1] (male, human, -4.2 h), 2.00 µg/g creatinine. The “Median increase in morning urine after exposure (sampling 9) vs. before (sampling 1)” value in series [1] (male, human, 18 h) stood at 1.5 fold. In addition, the “Median increase from baseline (sample 2) to peak excretion” value in series [1] is listed as 6.6 fold. Also, in series [2] (male, human, initial elimination half-life after peak excretion, urine, read-out: Estimated half-life, mean (converted)), the half-life was 5.2 h. For the same compound, the “Time to peak, median” value in series [2] (setting [6]) is 3.3 h. In addition, in series [2] (setting [6]), the “Time to peak, range” value fell in the range of 2.2 to 11.2 h. The “Time of peak excretion after the end of the training session” value in series [3] is 1 h. In addition, the “95th percentile of urinary concentration in smokers” value in series [4] is recorded as 29.0 µg/g crea.
Regarding `Oc1cccc2ccccc12` [1-NAP, 1-hydroxynaphthalene], in series [1], the “Increase in concentration from before exposure up to the maximum of excretion, factor” value amounted to 40; the “Median increase in morning urine after exposure (sampling 9) vs. before (sampling 1)” value was determined as 3.9 fold; the “Median increase from baseline (sample 2) to peak excretion” value stood at 36 fold. For the same compound, the “Time of peak excretion after the end of the training session” value in series [3] is 1 h. In series [4], the “95th percentile of urinary concentration in smokers” value is 32.8 µg/g crea.
Consider `c1ccc2ccccc2c1` [NAP, naphthalene], for which the IARC carcinogenicity category entry in series [5] is reported as “group 2B (possibly carcinogenic to humans)”.
